{
  "source": "ChEMBL document CHEMBL6182856",
  "about": "“Novel one-/two-photon excited carbazole/quinolinium photosensitizers manifest nanomolar and hypoxia-resistant tumor photodynamic therapy by accelerating apoptosis, ferroptosis, and autophagy” (Eur J Med Chem, 2025)",
  "assay_type_in_all_cases": "functional",
  "key": {"[1]": {"test": "Photosensitizing ability of the compound assessed as superoxide radical production measured upon irradiation by electron spin resonance analysis"}, "4T1": {"tested_on": "4T1", "test": "Phototherapeutic index, ratio of IC50 for cytotoxicity against mouse 4T1 cells measured under normoxia conditions to IC50 for phototoxicity against mouse 4T1 cells measured under normoxia conditions and after one-photon excitation upon irradiation with light at 520 nm, 200 mW/cm2 for 10 mins"}, "A549": {"tested_on": "A549", "test": "Induction of apoptosis in human A549 cells assessed as reduction in Bcl-2 expression measured upon light irradiation by western blot analysis relative to control"}, "[2]": {"test": "Photosensitizing ability of the compound in methanol assessed as singlet oxygen production by measuring quantum yield upon irradiation by DPBF based assay relative to KAKQ"}},
  "note": "Activity calls are given as the source filed them. The calls are words filed in the database; no cut-off is given here.",
  "data": [
    {"smiles": "CCn1c2ccc(/C=C/c3cc[n+](C)c4ccccc34)cc2c2cc(N(c3ccccc3)c3ccccc3)ccc21.[I-]", "values": [
      {"measurement": "Activity", "setting": "[1]", "value": "Active"},
      {"measurement": "Ratio IC50", "setting": "4T1", "value": 21},
      {"measurement": "fold change (FC)", "setting": "A549", "value": "~3"},
      {"measurement": "fold change (FC)", "setting": "[2]", "value": 3}
    ]}
  ]
}
